Activity calls are given as the source filed them.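 How the source made its calls: active means cell-killing curve crosses a set limit at a concentration no more than twice the top valid dose; inconclusive means flat curve with a 30 to 70% loss, or a poor fit; inactive means signal rising instead of falling, and the rest.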

System in one assay: not listed separately
Kind of assay: TC71 Ewing sarcoma cell killing, confirmation, luminescence, cherry-picked samples, retest (AID 720570). To be noted: TC71 Ewing sarcoma viability, CellTiter-Glo ATP, 72 h; at 23.5 µM (top of the series). A general note: Cellular ATP, detected with luciferase, serves as a proxy for viable cell number.
As for `COC(=O)C[C@@H]1CC[C@H]2[C@H](COc3ccc(NC(=O)Nc4ccc(C#N)cc4)cc3C(=O)N2C)O1`, the activity change, negative = cytotoxicity was 4.96% (inactive).

The same assay, now with this note: TC71 Ewing sarcoma viability, CellTiter-Glo ATP, 72 h; at 26 µM (top of the series).
With `C[C@@H]1CCCCO[C@@H](CN(C)C(=O)Cc2ccccc2)[C@@H](C)CN([C@@H](C)CO)C(=O)c2cc(NS(=O)(=O)c3ccc(F)cc3)ccc2O1`, the activity change, negative = cytotoxicity was -0.12% (inactive). `CCOC(=O)Cc1csc(NC(=S)NC(=O)c2ccc(C)cc2)n1`: the activity change, negative = cytotoxicity is 19.7% (inactive). Consider `Cc1cc2sc3ccc(C#CC4(O)CCCCC4)cc3c(=O)c2cc1C`, for which the activity change, negative = cytotoxicity is 23.5% (inactive). As for `O=C(CCCCl)Nc1nc(-c2ccc3c(c2)OCCO3)cs1`, the activity change, negative = cytotoxicity is 3.63% (inactive). With `CCN(CC)C(=O)CN1C(=O)C(=O)c2ccccc21`, the activity change, negative = cytotoxicity was 6.39% (inactive). Still for that read-out and setting: for `C/C=C/c1ccc([C@H]2[C@@H](CO)N3C(=O)CN(S(=O)(=O)c4cccc(F)c4)C[C@@H]23)cc1` the value was 13.2% (inactive); for `CCc1ccc(N2C=C(C(=O)OC)C(c3ccc(OC)cc3)C(C#N)=C2N)cc1` (centres undefined), -7.67% (inactive); for `C[C@@H]1CN([C@@H](C)CO)S(=O)(=O)c2ccc(C#Cc3ccncc3)cc2O[C@H]1CN(C)S(=O)(=O)c1ccccc1`, -2.93% (inactive). `O=C(CNC(=O)Cc1ccccc1)N=Nc1c(O)n(Cc2ccc3c(c2)OCO3)c2ccccc12`: the activity change, negative = cytotoxicity is 8.54% (inactive). In the case of `COC(=O)c1c(C)[nH]c(/C=N/Nc2ccccc2)c1C`, the activity change, negative = cytotoxicity is 7.36% (inactive). As for `CCc1c(C(=O)NN2C(=O)C3CCCCC3C2=O)csc1C` (centres undefined), the activity change, negative = cytotoxicity was 23.1% (inactive).

As to `COc1ccc2nc(-c3ccc(F)cc3)sc2c1`, the activity change, negative = cytotoxicity was -14.1% (inactive).

A further assay has as its system TC71 Ewing sarcoma viability, CellTiter-Glo ATP, 72 h. The assay is described as above.
Settings: not given
As to `Cc1nc2ncccn2c1-c1csc(Nc2ccc(O)cc2)n1`, the AC35 is 4.74 µM. On the same count and under the same terms, for `Oc1c(Cl)cc(Cl)c(Cl)c1Cc1c(O)c(Cl)cc(Cl)c1Cl` the value was 3.22 µM; for `Nc1nc(=S)c2ncn([C@@H]3O[C@H](CO)[C@@H](O)[C@H]3O)c2[nH]1`, 1.74 µM.

As for `C[C@H]1CN([C@@H](C)CO)C(=O)c2cc(NS(=O)(=O)c3ccc(Cl)cc3)ccc2O[C@H]1CN(C)Cc1ccc(Cl)c(Cl)c1`, the AC35 is 20.3 µM. On to `O=C(Nc1cccc(S(=O)(=O)N2CCCC2)c1)c1ccc(Cl)nc1`, for which the AC35 was 14 µM.

Take `COc1ccc(CCCNC(=O)C2Cc3c(-c4ccc5c(c4)OCO5)ccnc3O2)cc1` (centres undefined): the AC35 was 3.47 µM. Still for that read-out and setting: under `O=c1[nH]c(/C=C2\C=Nc3ccccc32)c(O)n1Cc1ccccc1F` stands 20.7 µM. Same read-out and setting: for `C[C@@H]1CN([C@H](C)CO)C(=O)c2cccc(N(C)C)c2O[C@@H]1CN(C)Cc1ccc(C(=O)Nc2ccccc2N)cc1` the value was 16.4 µM. Take `CC(C)(C)C(=O)Cn1ncc(Cl)c(Cl)c1=O`: the AC35 is 7.6 µM. As for `C[C@@H]1CN([C@H](C)CO)C(=O)c2cc(NC(=O)CCCCCC(=O)Nc3ccccc3N)ccc2O[C@@H]1CN(C)Cc1ccc(Cl)c(Cl)c1`, the AC35 is 12.8 µM. As for `COc1ccc([Si](C)(C)[C@H]2[C@H](CCO)O[C@@]3(C(=O)N(c4ccccc4)c4ccccc43)[C@@H]2C)cc1`, the AC35 is 12.8 µM.

Regarding `COc1cc2c(OC(C)=O)c3c(c(-c4ccc5c(c4)OCO5)c2cc1OC)C(=O)OC3`, the AC35 is 3.57 µM.

`C[C@@H]1CN([C@@H](C)CO)C(=O)c2cccc(NS(=O)(=O)c3ccc(Cl)cc3)c2O[C@@H]1CN(C)Cc1ccc(C(=O)Nc2ccccc2N)cc1`: the AC35 is 9.9 µM. As for `CCCN1C/C(=C/c2ccc3c(c2)OCO3)C(=O)/C(=C/c2ccc3c(c2)OCO3)C1`, the AC35 is 13.6 µM. `N#CC1=C(N)Oc2cc(N)ccc2C1c1cccc(Br)c1` (centres undefined): the AC35 was 0.845 µM. Still for that read-out and setting: under `N#C[C@H]1[C@H](c2ccc(-c3ccccc3F)cc2)[C@@H](CO)N1C(=O)Cc1ccccc1` stands 6.75 µM; under `CC(=O)N1CCCC(c2cc(C(=O)Nc3ccccc3)no2)C1` (centres undefined), 12.7 µM; under `C[C@]12CC[C@H](O)C[C@H]1CC[C@@H]1C2CC[C@]2(C)[C@@H](C3=CC(=O)OC3)[C@@H](O)C[C@]12O` (some centres undefined), 9.35 µM. With `Cc1ccc(C(C)C)c(OCc2ccc(C(=O)N/N=C/c3ccc(O)cc3O)cc2)c1`, the AC35 was 2.01 µM. With `COc1cccc(-c2cccc(-c3nc(C(=O)NCC(F)(F)F)cc4c3[C@H](CCO)N([S@@](=O)C(C)(C)C)C4)c2)c1`, the AC35 is 5.61 µM. Consider `O=C(O)c1ccc(N/N=C/c2c(F)cccc2Cl)cc1`, for which the AC35 is 3.26 µM. In the case of `Cc1cc(C)cc(N2C(=O)NC(=O)/C(=C\C=C\c3ccco3)C2=O)c1`, the AC35 is 11.3 µM. As for `Cc1ccc(C)c(S(=O)(=O)N2CCN(c3ncnc4sccc34)CC2)c1`, the AC35 is 6.72 µM.

`C[C@@H]1CN([C@@H](C)CO)C(=O)c2cccc(N(C)C)c2O[C@@H]1CN(C)Cc1ccc(C(=O)Nc2ccccc2N)cc1`: the AC35 is 21.1 µM.

Turning to `C[C@@H]1CN([C@@H](C)CO)C(=O)c2cccc(NS(=O)(=O)c3ccc(F)cc3)c2O[C@@H]1CN(C)Cc1ccc(C(=O)Nc2ccccc2N)cc1`, the AC35 was 8.22 µM. On the same count and under the same terms, for `Cc1cc(C)cc(C(=O)NC(=S)Nc2ccc(Cc3ccncc3)cc2)c1` the value was 7.66 µM.

For `C[C@H](CO)N1C[C@H](C)[C@H](CN(C)Cc2ccc(C(=O)Nc3ccccc3N)cc2)Oc2ccc(NC(=O)C3CC3)cc2CC1=O`, the AC35 was 9.49 µM.

Consider `CN1c2ccc(-c3ccc(C#N)cc3)cc2[C@H]2[C@H](CCN2S(=O)(=O)c2cccc(F)c2)[C@@H]1CO`, for which the AC35 was 5.53 µM. Still for that read-out and setting: for `S=c1[nH]nc(-c2cc(-c3ccccc3)n[nH]2)n1/N=C/C(Br)=C/c1ccccc1` the value was 13.2 µM; for `Cc1nn(Cc2ccccc2Cl)c2sc(C(=O)Nc3ccccc3N3CCOCC3)cc12`, 13.2 µM; for `C[C@@H]1CN([C@H](C)CO)C(=O)c2cc(N(C)C)ccc2O[C@H]1CN(C)Cc1ccc(C(=O)Nc2ccccc2N)cc1`, 12.5 µM.

Turning to `COc1ccc(-c2cnc3c(NC=O)cc(-c4ccccc4OC)cn23)cc1OC`, the AC35 was 0.147 µM. `CCN1CCS/C1=C\C=C\C1=[N+](CC)CCS1`: the AC35 is 9.96 µM. Take `CN(C)c1ccc(C=c2c3ccccc3n3c2c2c([n+]3C)CCCC2)cc1`: the AC35 was 3.96 µM. As for `Cc1ccccc1NC(=O)C(=Cc1ccc(C(=O)O)cc1)C(=O)Nc1ccccc1C`, the AC35 is 6.67 µM. For the compound `C[C@@H]1CN([C@@H](C)CO)C(=O)c2cc(NC(=O)c3ccccc3)ccc2O[C@@H](C)CCCCO[C@H]1CN(C)C(=O)Nc1cccc2ccccc12`, the AC35 is 0.679 µM.

With `Cc1[nH]c(=S)sc1Cc1ccc(Cl)c(Cl)c1`, the AC35 was 0.898 µM. In the case of `COc1cc2c(cc1NC(=O)CN(C)Cc1ccc(OC)c(OC)c1)oc1ccccc12`, the AC35 is 14.5 µM. In the case of `Cc1ccc(S(=O)(=O)Nc2ccc3c(c2)C(=O)N([C@H](C)CO)C[C@@H](C)[C@@H](CN(C)Cc2ccc(C(=O)Nc4ccccc4N)cc2)O3)cc1`, the AC35 was 11 µM. Consider `C[C@H](CO)N1C[C@H](C)[C@H](CN(C)Cc2ccc(C(=O)Nc3ccccc3N)cc2)Oc2ccc(N(C)C)cc2C1=O`, for which the AC35 was 11.9 µM. With `Cc1ccc(S(=O)(=O)Nc2ccc3c(c2)C(=O)N([C@H](C)CO)C[C@H](C)[C@@H](CN(C)Cc2ccc(C(F)(F)F)cc2)OCCCC[C@H](C)O3)cc1`, the AC35 is 12.1 µM. `C[C@@H]1O[C@@H](O[C@@H]2C=C3CC[C@@H]4C(CC[C@]5(C)[C@@H](c6ccc(=O)oc6)CC[C@]45O)[C@@]3(C)CC2)[C@H](O)[C@H](O)[C@H]1O` (some centres undefined): the AC35 was 0.0374 µM.

For the compound `CN=c1scc(-c2cccs2)n1/N=C/c1ccccc1O`, the AC35 is 21.7 µM.

In the case of `COC(=O)C1=C(C)N(Cc2ccccc2C(F)(F)F)C(=NCc2ccc(OC)cc2)NC1c1ccc(C(F)(F)F)cc1` (centres undefined), the AC35 was 13.5 µM.

As to `Nc1ccn([C@@H]2O[C@H](CO)[C@@H](O)C2O)c(=O)n1` (some centres undefined), the AC35 was 1.22 µM.

On to `C[C@@H]1O[C@@H](O[C@@H]2C=C3CCC4C(CC[C@]5(C)[C@@H](c6ccc(=O)oc6)CC[C@]45O)[C@@]3(C)CC2)[C@H](O)[C@H](O)[C@H]1O` (some centres undefined), for which the AC35 is 0.0271 µM.

As to `CC1=NN(c2ccc(C)cc2)C(=O)/C1=C\C=C\c1ccccc1`, the AC35 was 18.8 µM. For `O=c1cc(-c2ccccc2)oc2ccc3ccccc3c12`, the AC35 was 10.7 µM. As for `COc1ccc(-c2cc(CNc3nc(NC(C)C)nc4cc(-c5ccccc5)sc34)on2)cc1`, the AC35 is 12.1 µM. On the same count and under the same terms, for `COc1ccc(C2=Nn3c(nnc3-c3ccccc3F)SC2)cc1OC1CCOC1` (centres undefined) the value was 4.93 µM; for `COc1ccc(-c2cn(-c3ccc(OC)cc3)c3[n+]2-c2ccccc2CC3)cc1`, 14.4 µM; for `COc1ccc(NC(=O)N2CCCCN3[C@@H](CO)[C@H](c4ccc(C5=CCCCC5)cc4)[C@@H]3C2)cc1`, 23.3 µM.

Consider `C[C@@H]1CN([C@H](C)CO)C(=O)c2cc(C#CCN(C)C)cnc2O[C@H]1CN(C)Cc1ccc(-c2ccccc2)cc1`, for which the AC35 was 22.2 µM. For the compound `CCNC(=O)c1cc2c(c(-c3cccc(-c4cccc(OC)c4)c3)n1)[C@H](CCO)N([S@@](=O)C(C)(C)C)C2`, the AC35 was 7.43 µM. Turning to `C[C@@H]1CN([C@@H](C)CO)C(=O)Cc2cc(N(C)C)ccc2O[C@@H]1CN(C)Cc1ccccc1`, the AC35 was 17.7 µM. Regarding `Cc1ccc(S(=O)(=O)N(C)C[C@@H]2Oc3ccc(NC(=O)CCCCCC(=O)Nc4ccccc4N)cc3CC(=O)N([C@@H](C)CO)C[C@@H]2C)cc1`, the AC35 is > 21 µM (inactive). Regarding `Cc1ccc(S(=O)(=O)Nc2ccc3c(c2)C(=O)N([C@@H](C)CO)C[C@@H](C)[C@@H](CN(C)Cc2ccc(C(=O)Nc4ccccc4N)cc2)O3)cc1`, the AC35 was 11.5 µM. As to `C(=Cc1c[nH]c2ccccc12)c1ccc2ccccc2n1`, the AC35 is 3.86 µM. Regarding `COC1C(O)C(C)OC(OC2C(Oc3cccc4c(O)c5c(=O)oc6ccc(C)c7c(=O)oc(c34)c5c67)OC(C)C(O)C2O)C1O` (centres undefined), the AC35 is 5.5 µM. In the case of `C[C@H](CO)N1C[C@H](C)[C@H](CN(C)Cc2ccc(Oc3ccccc3)cc2)Oc2ccc(NC(=O)Cn3cnnn3)cc2CC1=O`, the AC35 is 26.9 µM. As to `BrC(=C\c1ccccc1)/C=N/n1cnnc1`, the AC35 is 14.5 µM.

For the origin of these results see PubChem BioAssay AID720570 (Broad Institute, 2013).
